Laboratory results taken from patent US6638938B1, “Method for preventing tissue injury from hypoxia” (Cell Therapeutics, Inc., priority 1993, dated 2003).

Tested on: LPAAT (lysophosphatidic acyltransferase)
Experiment: inhibition of LPAAT activity
Format: biochemical
Conditions: extremely weak inhibitor; above clinically achievable concentrations

In the case of `CC(=O)CCCCn1c(=O)c2c(ncn2C)n(C)c1=O` [pentoxifylline, 1-(5-oxohexyl)3,7-dimethylxanthine, reference compound], the “concentration required for inhibition of LPAAT activity” value is reported as > 1 mM.
